The values that follow come from patent US12686711B2, “DARIC interleukin receptors” (Regeneron Pharmaceuticals, Inc., priority 2017, dated 2026).

The conditions of assay [1]: target or test not stated; chemically modified non-immunosuppressive rapamycin analogue; cited from earlier work.
The test system of the next assay is donor PBMCs. Nature of the assay: IFNγ production in IL-12 pre-treated transduced and untransduced donor PBMCs. The format is cell-based. The conditions noted are these: untransduced controls and IL-18R-DARIC-GFP transduced cells; pre-treated 50 ng/mL human recombinant IL-12 for 24 hours, then medium with 100 ng/mL human recombinant IL-18; FIG. 2. From the text: IL-18 receptor (IL-18R) DARIC binding and signaling components were designed, constructed, and verified. An IL-18R DARIC lentiviral vector was constructed comprising an MNDU3 promoter operably linked to a polynucleotide encoding: a DARIC signaling component (CD8α-signal peptide, an FRB variant (T82L), and an IL-18R1 transmembrane and signaling domain); a P2A sequence; and a DARIC binding component (an Igκ-signal peptide, an FKBP12 domain, and a IL-18RAP transmembrane and signaling domain). An IL-18R DARIC-GFP lentiviral vector was constructed by appending another polynucleotide encoding a P2A sequence and GFP to the to the polynucleotide encoding the IL-18R1 signaling domain in aforementioned vector. See, e.g., SEQ ID NOs: 1-4.
Donor PBMCs were transduced with LVV encoding IL-18R-DARIC-GFP. Transduced PBMCs and untransduced control PBMCs were pre-treated with 50 ng/mL human recombinant IL-12 for 24 hours. The treated cells were washed and cultured in medium only, medium with 100 ng/mL human recombinant IL-18 or medium with 1 nM rapamycin. […] FIG. 2.

What is called IC50 is the concentration that gives 50% inhibition. In the case of `CO[C@H]1[C@@H](O)[C@H](C)C[C@H](C)/C=C/C=C/C=C(\C)[C@@H](c2c[nH]c3c(C)cccc23)C[C@@H]2CC[C@@H](C)[C@@](O)(O2)C(=O)C(=O)N2CCCC[C@H]2C(=O)O[C@H]([C@H](C)C[C@@H]2CC[C@@H](O)[C@H](OC)C2)C[C@H](O)[C@H](C)/C=C(\C)[C@H]1O` [AP21967, C-16-(S)-7-methylindolerapamycin], the IC50 in assay [1] was 10 nM.

Consider “IL-18: human recombinant IL-18 cytokine used as positive control”, for which, in the assay with donor PBMCs, the “IFNγ production when cultured in IL-18” value was “increased IFNγ production in both untransduced controls and cells transduced with IL-18R-DARIC-GFP”.
